For assay [1], the system named is RNA Polymerase II Serine 5 phosphorylation (Rpb1 CTD, downstream substrate of CDK7) in A549 cells. Kind of assay: Imaging-based cellular RNA PolII Ser5 phosphorylation assay in A549 cells. The class given is cell-based, human. The conditions noted are these: Homo sapiens, A549, A549 cells, wild-type CDK7; RNA PolII Ser5 phosphorylation; averaged over all measurements; read-out: CDK7_A549 Wild-type CDK7 (pIC50) (converted). An excerpt: (§1) To evaluate inhibition of CDK7 kinase activity, a 384-well automated imaging assay was used. This assay detects Serine 5 phosphorylation on a unique heptapeptide sequence in the C-terminal domain of Rpb1 subunit of RNA polymerase II, the downstream substrate of CDK7. This heptapeptide sequence is repeated up to 52 times in the CTD of Rpb1.
(§2) A549 adenocarcinoma human alveolar basal epithelial cells (ATCC, CCL-185), rabbit Phospho-Rpb1 CTD (Ser5) antibody (D9N51 (Cell Signaling Technology)), DMEM (Sigma), Fetal Bovine Serum (Biowest), L-glutamine (Sigma), Penicillin/Streptomycin (Life Technologies), Sodium Pyruvate (Sigma), Hepes (Sigma), poly-D-lysine coated μclear 384 black plates (Greiner), formaldehyde (PolySciences), D-PBS (Sigma), Methanol (Sigma), Alexa Fluor 488 goat anti rabbit IgG secondary antibody (Life Technologies), HCS CellMask™ Deep Red stain (Life Technologies), Hoechst 33258 (Invitrogen).
(§3) RNA Polymerase II Serine 5 phosphorylation was detected using a specific rabbit Phospho-Rpb1 CTD (Ser5) antibody. A549 adenocarcinoma human alveolar basal epithelial cells were seeded in 20 μl medium (DMEM supplemented with 1% Fetal Bovine Serum (heat inactivated 30′ 56° C.), 2 mM L-glutamine, 50 U/ml penicillin 50 μg/ml streptomycin, 1 mM sodium pyruvate and 50 mM hepes) at 1000 cells/well and cultured in poly-D-lysine coated μclear 384 black plates for 20 hours at 37° C. and 5% CO2.
(§4) After incubation cells were challenged with compound for 3 hours at 37° C. and 5% CO2. DMSO was used as high control and as low control 10 μM of the following reference compound was used:
(§5) 40 nl of test compounds and controls were spotted in cell plates using Echo Liquid Handler (Echo 550, Labcyte). Incubation was followed by 20 minutes fixation with 20 μl 10% formaldehyde at room temperature. Medium/formaldehyde solution was removed, plates were washed 3 times with 30 μl D-PBS (w/o Ca^2+ and Ma^2+) and permeabilization was done by adding 20 μl ice cold methanol for 20 minutes. Cells were washed again 3 times with 30 μl D-PBS and 20 μl blocking buffer (25 ml fetal bovine serum in 500 ml D-PBS) was added for 1 hour.
(§6) After removing blocking buffer 20 μl 1/1000 primary antibody rabbit Phospho-Rpb1 CTD (Ser5) antibody was added which binds to the phosphorylated Serine5 of the heptapeptide sequences in the CTD of Rpb1. Primary antibody was removed, and plates were washed 3 times with 30 μl D-PBS followed by addition of 20 μl 1/2000 Alexa Fluor 488 goat anti rabbit IgG secondary antibody for final detection of Phospho-Rpb1 CTD (Ser5) together with 1/5000 HCS CellMask™ Deep Red stain for membrane staining and 1/5000 Hoechst 33258 for nucleus staining. Last, plates were washed 2 times with 30 μl D-PBS and wells were filled with 40 μL D-PBS, plates were sealed (Thermowell sealing tape) and stored at 4° C. until reading. Plates were read with Opera Phenix (Perkin Elmer) with 10× air objective. Data were calculated and analyzed in Phaedra.
(§7) IC50 values were calculated using the following formula: […]
(§8) Average value of all HC's and all LC's are used for normalizations.
(§9) A best-fit curve is fitted by a minimum sum of squares method to the plot of % Control vs. compound concentration. From this an IC50 value can be obtained. An estimate of the slope of the plot in terms of the Hill coefficient is also obtained.

In assay [2] the test system is RNA Polymerase II Serine 5 phosphorylation in A549 cells overexpressing CDK7-mutant (C312S). Kind of assay: Imaging-based cellular RNA PolII Ser5 phosphorylation assay in A549 cells overexpressing CDK7-mutant (C312S). The class given is cell-based, human. The conditions noted are these: RNA PolII Ser5 phosphorylation, averaged over all measurements; for IC50: Homo sapiens, A549, A549 cells overexpressing CDK7-mutant (C312S), read-out: CDK7_A549 mutant hCDK7(pIC50) (converted).
Excerpt: as §1, §2, §3, §4, §5, §6, §7, §8, §9
In parallel this assay was performed in A549 cells overexpressing CDK7-mutant (C312S) to evaluate the effect of the covalent bond on potency and to screen for potential off-target effects. Mutation of Cysteine to Serine (C312S), a less nucleophilic amino acid, prevents CDK7 inhibitors from covalently binding to CDK7 and from inhibiting CDK7 activity in an irreversible manner. A stably transduced A549 cell pool was generated that overexpresses CDK7 mutant (C312S), but also expresses endogenous CDK7-WT. Covalent binders targeting the cysteine at position 312 will show a shift in potency in A549 cells overexpressing mutant C312S CDK7.

Assay [3] concerns the target CDK7/cyclinH/MAT1 trimeric complex (Homo sapiens, UniProt P50613). Nature of the assay: In vitro CDK7 assay, potency of irreversible covalent inhibitors (kinact/KI), coupled PK/LDH ADP readout at 340 nm.
Where [4] appears, read: CDK7 (20 nM enz.) (KI, μM), 20 nM enzyme.
[5] abbreviates: read-out: CDK7 (20 nM enz.) (kinact, s^−1), 20 nM enzyme.
Setting [6] is: read-out: CDK7 (20 nM enz.) (kinact/KI, M^−1*s^−1), 20 nM enzyme.
[7] abbreviates: read-out: CDK7 (20 nM enz.) (kobs/[I], M^−1*s^−1), 20 nM enzyme.

Where two headings read alike, the source gives them in different places.

Sequence of CDK7/cyclinH/MAT1 trimeric complex (P50613 whole entry): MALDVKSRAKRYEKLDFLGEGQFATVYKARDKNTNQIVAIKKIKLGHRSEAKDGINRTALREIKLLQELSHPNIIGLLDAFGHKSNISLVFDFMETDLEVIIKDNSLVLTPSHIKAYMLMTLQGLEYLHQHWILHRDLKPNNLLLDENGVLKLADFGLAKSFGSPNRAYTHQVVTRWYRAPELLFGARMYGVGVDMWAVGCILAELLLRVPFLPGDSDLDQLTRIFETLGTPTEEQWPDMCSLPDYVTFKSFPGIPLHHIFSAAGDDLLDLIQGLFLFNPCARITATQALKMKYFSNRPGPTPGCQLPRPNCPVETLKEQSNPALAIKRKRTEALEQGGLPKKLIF
Sequence of CDK7/cyclinH/MAT1 trimeric complex (P51946 whole entry partner): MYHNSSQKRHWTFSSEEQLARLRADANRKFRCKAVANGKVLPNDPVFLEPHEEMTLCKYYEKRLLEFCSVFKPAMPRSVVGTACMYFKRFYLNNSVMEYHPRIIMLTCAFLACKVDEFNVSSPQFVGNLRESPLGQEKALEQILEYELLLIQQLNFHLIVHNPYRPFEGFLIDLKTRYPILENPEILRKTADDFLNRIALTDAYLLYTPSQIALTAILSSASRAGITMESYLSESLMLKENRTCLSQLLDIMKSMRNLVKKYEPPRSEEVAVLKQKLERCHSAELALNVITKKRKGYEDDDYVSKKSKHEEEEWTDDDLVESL
Sequence of CDK7/cyclinH/MAT1 trimeric complex (P51948 whole entry partner): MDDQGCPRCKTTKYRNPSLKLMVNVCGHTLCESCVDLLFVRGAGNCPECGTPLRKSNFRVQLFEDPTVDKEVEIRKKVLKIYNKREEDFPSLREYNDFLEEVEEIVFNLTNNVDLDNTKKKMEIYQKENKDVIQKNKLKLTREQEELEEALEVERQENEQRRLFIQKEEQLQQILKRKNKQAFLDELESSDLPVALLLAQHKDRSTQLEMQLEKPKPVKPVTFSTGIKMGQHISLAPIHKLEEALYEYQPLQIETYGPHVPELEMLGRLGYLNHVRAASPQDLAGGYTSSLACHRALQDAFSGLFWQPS

With `C=CC(=O)N1CCC(N2CC[C@H](O)[C@@H](c3ccc4c(c3)OCc3c(N5CCOCC5)ccnc3N4)C2)CC1` (mixture of isomers) [Compound 157], the IC50 in assay [1] and in assay [2] was > 10000 nM in each case.
Take `C=CC(=O)N1CC(N2CCN(C)[C@H](c3ccc4c(c3)Nc3nccc(N5CCOCC5)c3CO4)C2)C1` (single isomer, unassigned) [Compound 142]: the IC50 in assay [1] was 1450 nM; in assay [2] it was > 10000 nM.
Consider `C=CC(=O)N1CC(N2CCN(C)[C@@H](c3ccc4c(c3)Nc3nccc(N5CCOCC5)c3CO4)C2)C1` (single isomer, unassigned) [Compound 144], for which the IC50 in assay [1] and in assay [2] was > 10000 nM in each case.
`C=CC(=O)N1CC(N2CCC(c3cc4c(cn3)O[C@@H](C)c3c(N5CCOCC5)ccnc3N4)CC2)C1` (single isomer, unassigned) [Compound 172]: the Ki in assay [3] (setting [4]) was 1.4 µM. Moreover, the kinact (usually the rate constant of inactivation at saturating inhibitor) in assay [3] (setting [5]) is 5.53e-05 s⁻¹. In addition, the kinact/KI in assay [3] (setting [6]) worked out at 39.4 M⁻¹ s⁻¹.
Take `C=CC(=O)N1CC[C@@H](N2CCC(c3cc4c(c(C)n3)OCc3c(-c5cnn(C)c5)ccnc3N4)CC2)C1` (single isomer, unassigned) [Compound 182]: the figures for the IC50 in assay [1] and in assay [2] were 38 nM and > 10000 nM, respectively.
With `C=CC(=O)N1CC[C@H](N2CCC(c3cc4c(c(C)n3)OCc3c(-c5cnn(C)c5)ccnc3N4)CC2)C1` (single isomer, unassigned) [Compound 185], the IC50 in assay [1] was 81.3 nM; in assay [2] it was > 10000 nM.
For the compound `C#CCCN(C)C/C=C/C(=O)N1CC(N2CCC(c3ccc4c(c3)Nc3nccc(C5CCOCC5)c3[C@@H](C)O4)CC2)C1` (single isomer, unassigned) [Compound 186], the IC50 was 100 nM in assay [1] and > 10000 nM in assay [2].
For `C#CCCN(C)C/C=C/C(=O)N1CC(N2CCC(c3ccc4c(c3)Nc3nccc(C5CCOCC5)c3[C@H](C)O4)CC2)C1` (single isomer, unassigned) [Compound 187], the figures for the IC50 in assay [1] and in assay [2] were 4070 nM and > 10000 nM, respectively.
Turning to `C#Cc1cc2c(cc1C1CCN(C3CN(C(=O)C=C)C3)CC1)Nc1nccc(N3CCOCC3)c1[C@H](C)O2` (single isomer, unassigned) [Compound 214], the “CDK7_A549 mutant hCDK7(pIC50)” value in assay [2] (A549 cells overexpressing CDK7-mutant (C312S)) was <5. Also, the kinact/KI in assay [3] (setting [7]) was 417 M⁻¹ s⁻¹.
Take `C=CC(=O)N1CC(N2CCC(c3ccc4c(c3)Nc3nccc(N5CCOCC5)c3[C@@H](C)O4)CC2)C1` (single isomer, unassigned) [compound 90]: the kinact/KI in assay [3] (setting [7]) came out at 1190 M⁻¹ s⁻¹.
`C=CC(=O)N1CC(N2CCC(c3cc4c(cn3)O[C@H](C)c3c(N5CCOCC5)ccnc3N4)CC2)C1` (single isomer, unassigned) [compound 171]: the Ki in assay [3] (setting [4]) stood at 0.0278 µM. Besides, the kinact in assay [3] (setting [5]) was determined as 5.15e-05 s⁻¹. In assay [3] (setting [6]), the kinact/KI is 1850 M⁻¹ s⁻¹.
With `C=CC(=O)N1CC[C@@H](N2CC(c3cc4c(c(C)n3)OCc3c(N5CCOCC5)ccnc3N4)C2)C1` (single isomer, unassigned) [compound 179], in assay [3] (setting [4]), the Ki came out at 0.0606 µM. Moreover, the kinact in assay [3] (setting [5]) worked out at 5.08e-05 s⁻¹. Further, the kinact/KI in assay [3] (setting [6]) is 839 M⁻¹ s⁻¹.
The like results for `C=CC(=O)N1CC[C@H](N2CC(c3cc4c(c(C)n3)OCc3c(N5CCOCC5)ccnc3N4)C2)C1` (single isomer, unassigned) [compound 180] were, in that order, 0.0452 µM, 5.34e-05 s⁻¹ and 1180 M⁻¹ s⁻¹.
For the compound `C=CC(=O)N1CC(N2CC(c3cc4c(cn3)O[C@@H](C)c3c(-c5cnn(C)c5)ccnc3N4)C2)C1` (single isomer, unassigned) [compound 300], the Ki in assay [3] (setting [4]) amounted to 2.63 µM. Besides, the kinact in assay [3] (setting [5]) was 3.59e-05 s⁻¹. For the same compound, in assay [3] (setting [6]), the kinact/KI worked out at 13.7 M⁻¹ s⁻¹.
`C=CC(=O)N1CC[C@@H](N2CC(c3cc4c(c(C)n3)O[C@@H](C)c3c(-c5cnn(C)c5)ccnc3N4)C2)C1` (single isomer, unassigned) [compound 420]: the Ki in assay [3] (setting [4]) worked out at 7.92 µM. Further, the kinact in assay [3] (setting [5]) was found to be 4.55e-05 s⁻¹. The kinact/KI in assay [3] (setting [6]) is 5.74 M⁻¹ s⁻¹.
For `C=CC(=O)N1CC(N2CCC(c3cc4c(c(C)n3)O[C@H](C)c3c(C5CCOCC5)ccnc3N4)CC2)C1` (single isomer, unassigned) [compound 429], the Ki in assay [3] (setting [4]) amounted to 0.0672 µM. In addition, the kinact in assay [3] (setting [5]) is 9.76e-05 s⁻¹. The kinact/KI in assay [3] (setting [6]) was determined as 1450 M⁻¹ s⁻¹.
As to `CC#CC(=O)N1CC(N2CC(c3cc4c(c(C)n3)O[C@H](C)c3c(N5CCOCC5)ccnc3N4)C2)C1` (single isomer, unassigned) [compound 444], in assay [3] (20 nM enzyme), the “CDK7 (20 nM enz.) (kinact, s^−1)” value came to 4.506e-05 s⁻¹ and the “CDK7 (20 nM enz.) (kinact/KI, M^−1*s^−1)” value is 242.644 M⁻¹ s⁻¹. In addition, the Ki in assay [3] (setting [4]) was found to be 0.186 µM.
`C=CC(=O)N1CC(N2CCC(c3ccc4c(c3)Nc3nccc(N5CCOCC5)c3CO4)C(C)(C)C2)C1` (stereo not shown) [Compound 41] displayed a Ki in assay [3] (CDK7 (KI(μM)), […], 1 mM ATP, room temperature, averaged values over all measurements) of 0.083 µM. Besides, the kinact in assay [3] (read-out: CDK7 (kinact, s^−1), kinact = maximal rate of inactivation, 1 mM ATP, room temperature, averaged values over all measurements) came to 8.37e-05 s⁻¹. The kinact/KI in assay [3] (read-out: CDK7 (kinact/KI, M^−1*s^−1), potency of irreversible covalent inhibitors, 1 mM ATP, room temperature, averaged values over all measurements) was determined as 1010 M⁻¹ s⁻¹.
As to `C=CC(=O)N1CC(N2CCC(c3cc(C)c4c(c3)Nc3nccc(N5CCS(=O)(=O)CC5)c3CO4)CC2)C1` [Compound 75], the kinact/KI in assay [3] (setting [7]) worked out at 1100 M⁻¹ s⁻¹.
For `C=CC(=O)N1CC(N2CCC(c3cc4c(c(C)n3)OCc3c(C5CCOCC5)ccnc3N4)CC2)C1` [compound 208], the Ki in assay [3] (setting [4]) came out at 0.168 µM. Besides, the kinact in assay [3] (setting [5]) was 4.84e-05 s⁻¹. Moreover, the kinact/KI in assay [3] (setting [6]) worked out at 287 M⁻¹ s⁻¹.
In the case of `C#CCCN(C)C/C=C/C(=O)N1CC(N2CCC(c3cc(Cl)c4c(c3)Nc3nccc(C5CCOCC5)c3CO4)CC2)C1` [compound 249], the kinact/KI in assay [3] (setting [7]) was found to be 1040 M⁻¹ s⁻¹.
For `C=CC(=O)N1CC(c2nc(C)c(-c3cc4c(c(C)n3)OCc3c(N5CCOCC5)ccnc3N4)c(C)n2)C1` [compound 277], the Ki in assay [3] (setting [4]) was 0.156 µM. In assay [3] (setting [5]), the kinact was determined as 4.48e-05 s⁻¹. Moreover, in assay [3] (setting [6]), the kinact/KI stood at 287 M⁻¹ s⁻¹.
The like results for `C=CC(=O)N1CCC(N2CCC(c3cc4c(c(C)n3)OCc3c(N5CCOCC5)ccnc3N4)CC2)CC1` [compound 324] were, in that order, 0.0237 µM, 5.03e-05 s⁻¹ and 2120 M⁻¹ s⁻¹.
The like results for `C=CC(=O)N1CC(N2CC(c3cc4c(c(P(C)(C)=O)n3)OCc3c(N5CCOCC5)ccnc3N4)C2)C1` [compound 331] were, in that order, 0.204 µM, 6.25e-05 s⁻¹ and 306 M⁻¹ s⁻¹.
Compound `C=CC(=O)N1CCC(n2ccc(-c3cc4c(c(C)n3)OCc3c(N5CCOCC5)ccnc3N4)cc2=O)CC1` [compound 419] yielded a Ki in assay [3] (setting [4]) of 0.273 µM. In addition, in assay [3] (setting [5]), the kinact came out at 3.95e-05 s⁻¹. Moreover, the kinact/KI in assay [3] (setting [6]) turned out to be 144 M⁻¹ s⁻¹.
